The target in one test is PDGFRA kinase (Homo sapiens, UniProt P16234). The test can be described thus: PDGFRA in vitro biochemical kinase study (Caliper EZ Reader). Particulars: Caliper mobility shift; read-out: Enzymatic experiment PDGFRA IC50. As to the method: (§1) B. KIT/PDGFRA In Vitro Biochemical Kinase Study
(§2) 1. Preparation of 1-Fold Kinase Buffer and Stop Solution
(§3) 1.2 stop solution: 100 mM HEPES, pH 7.5, 0.015% Brij-35, 0.2% Coating Reagent #3, 50 mM EDTA
(§4) 2. Preparation of Compound Solution
(§5) 2.1 Dilution of Compound Solution
(§6) 1) The final concentration of the compound solution was 40 μM, and the concentration of the prepared stock solution was 50 times of the final concentration, i.e., 2 mM.
(§7) 2) 80 μL of 100% DMSO was added to the second well of the 96-well plate, then 20 μL of 10 mM compound solution was added, and thereby 2 mM compound solution was prepared, 60 μL of 100% DMSO was added to other wells, 20 μL of compound was taken from the second well, added to the third well and diluted by 4 times. This serial 4-time dilution was conducted in sequence for the total of 10 concentrations.
(§8) 2.2 5-Fold Compound Solution Transferred to a Reaction Plate
(§9) 1) 10 μL of solution was taken from each well of the above 96-well plate and added to another 96-well plate, and 90 μL of kinase buffer was added.
(§10) 2) 5 μL of solution was taken from the above 96-well plate and added to a 384-well reaction plate.
(§11) 1) KIT/PDGFRA kinase was added to the 1-fold kinase buffer solution to obtain a 2.5-fold kinase solution.
(§12) 2) FAM-labeled polypeptide and ATP were added to the 1-fold kinase buffer solution to obtain a 2.5-fold substrate solution.
(§13) 3) 10 μL of 2.5-fold kinase solution was added to the 384-well reaction plate, which already contained 5 μL of 5-fold compound in 10% DMSO. And the mixed solution was incubated at room temperature for 10 min.
(§14) 4) 10 μL of 2.5-fold substrate solution was added to the 384-well reaction plate.
(§15) 5) Kinase reaction and termination: the mixed solution was incubated at 28° C. for a certain period of time, and 25 μL of stop solution was added to stop the reaction.
(§16) 2.4 Data Reading of Caliper EZ Reader II
(§17) 2.5 Calculation of Percent Inhibition and IC50
(§18) 1) Percent conversion data were copied from the Caliper EZ Reader. […]

The target in a further test is CSF-1R (Homo sapiens, UniProt P07333). The test can be described thus: CSF-1R in vitro biochemical kinase study (ADP-Glo assay). Particulars: 500 μM ATP, * = average of multiple tests, read-out: Enzymatic experiment CSF1R IC50. As to the method: A. CSF-1R In Vitro Biochemical Kinase Study
In the present invention, the inhibitory activity of compounds against the CSF-1R activity was determined by using CSF-1R ADP-Glo assay. The compound-mediated inhibition effect was achieved by inhibiting the production of ADP from consumption of ATP, and the activities of compounds were evaluated by using the ADP-Glo kit (Promega, cat. No. V9101). The specific experimental process was as follows:
1. The kinase reaction performed in the present invention was carried out in a 384-well plate (Perkinelmer, cat. No. 6007290), 3.95 nM of CSF-1R, 500 μM of ATP, and 0.2 mg/mL of polypeptide (Poly (Glu4, Try1), Sigma, cat. No. P0275) were respectively weighed and added to each well:
2. following reagents were then added to each well to reach the final reaction system: 40 mM Tris, pH 7.5, 20 mM MgCl2, 0.01% Triton X-100, 0.1 mg/mL BSA, 2.5 mM DTT, and 0.1% DMSO;
3. the reaction was conducted at 30° C. for 60 min;
4. then an equal volume of stop solution (ADP-Glo) was added to the kinase reaction system;
5. the mixed solution was incubated at 25° C. for 60 min, and the kinase reaction was then terminated;
6. a two-fold volume of detection reagent was then added to each well;
7. the mixed solution was incubated at 25° C. for 30 min;
8. the compound IC50 value was measured by using a plate reader (Tecan, M1000) and a four-parameter curve was generated in Graphpad Prism.

For a further test, the target named is KIT kinase (Homo sapiens, UniProt P10721). The test can be described thus: KIT in vitro biochemical kinase study (Caliper EZ Reader). The conditions noted are these: Caliper mobility shift; read-out: Enzymatic experiment KIT IC50. As to the method: as §1, §2, §3, §4, §5, §6, §7, §8, §9, §10, §11, §12, §13, §14, §15, §16, §17, §18
The subject of test [1] is M-NFS-60 mouse myeloid leukemia lymphocytes. In words: CSF-1R-related cell proliferation experiment (Cell Titer Glo), M-NFS-60 cells with M-CSF. The class given is cell-based. The conditions noted are these: Lymphocyte, 72 h, 3 days, CTG, * = average of multiple tests. How it is done:
C. CSF-1R-Related Cell Proliferation Experiment
Functional effects of compounds on cell proliferation were evaluated by using Cell Titer Glo (CTG) study in the present invention. M-NFS-60 mouse myeloid leukemia lymphocytes (cat. No. CCBJ078) from National Institutes For Food and Drug Control were cultured in the incubator under conditions of RPMI 1640 (Gibco, cat. No. 11875-119), 10% fetal bovine serum (Gibco, 10099-141), human 10 ng/mL M-CSF macrophage colony-stimulating factor (R&D, cat. No. MVN0915101), 37° C., and 5% CO2. Since ATP is an index for viable cell metabolism, CTG (Promega, #G7573) reagent is a homogeneous detection method for detecting the number of viable cells in the culture by quantifying ATP. Therefore, compound-mediated inhibition for cell proliferation/survival was evaluated by quantifying ATP content in cells, and the specific experimental process was as follows:
1. The cells were plated into a tissue-culture-medium-treated 96-well plate (Costar #3904) with 5,000 cells/well/80 μL fresh culture medium;
2. 24 hours later, 10 μL culture medium containing testing compound with 10-fold of final concentration was added to each well;
3. 10 μL of culture medium containing M-CSF with 10-fold of the final concentration was then added to each well;
4. dosage effect was evaluated by testing the 3-fold serial dilutions of the compound;
5. after the cells were incubated for 3 days at 37° C. and 5% CO2, the inhibition on cell survival was quantified after 50 μL of CTG was added and the luminescence assay was performed;
6. the compound concentration leading to half maximal inhibitory (IC50) and the compound concentration leading to absolute half maximal inhibitory (Absolute IC50) were measured by a plate reader (M1000, Tecan) and a four-parameter curve fit in Graphpad Prism 7.

Where two headings read alike, the source gives them in different places.

Chain of CSF-1R (P07333 20-972): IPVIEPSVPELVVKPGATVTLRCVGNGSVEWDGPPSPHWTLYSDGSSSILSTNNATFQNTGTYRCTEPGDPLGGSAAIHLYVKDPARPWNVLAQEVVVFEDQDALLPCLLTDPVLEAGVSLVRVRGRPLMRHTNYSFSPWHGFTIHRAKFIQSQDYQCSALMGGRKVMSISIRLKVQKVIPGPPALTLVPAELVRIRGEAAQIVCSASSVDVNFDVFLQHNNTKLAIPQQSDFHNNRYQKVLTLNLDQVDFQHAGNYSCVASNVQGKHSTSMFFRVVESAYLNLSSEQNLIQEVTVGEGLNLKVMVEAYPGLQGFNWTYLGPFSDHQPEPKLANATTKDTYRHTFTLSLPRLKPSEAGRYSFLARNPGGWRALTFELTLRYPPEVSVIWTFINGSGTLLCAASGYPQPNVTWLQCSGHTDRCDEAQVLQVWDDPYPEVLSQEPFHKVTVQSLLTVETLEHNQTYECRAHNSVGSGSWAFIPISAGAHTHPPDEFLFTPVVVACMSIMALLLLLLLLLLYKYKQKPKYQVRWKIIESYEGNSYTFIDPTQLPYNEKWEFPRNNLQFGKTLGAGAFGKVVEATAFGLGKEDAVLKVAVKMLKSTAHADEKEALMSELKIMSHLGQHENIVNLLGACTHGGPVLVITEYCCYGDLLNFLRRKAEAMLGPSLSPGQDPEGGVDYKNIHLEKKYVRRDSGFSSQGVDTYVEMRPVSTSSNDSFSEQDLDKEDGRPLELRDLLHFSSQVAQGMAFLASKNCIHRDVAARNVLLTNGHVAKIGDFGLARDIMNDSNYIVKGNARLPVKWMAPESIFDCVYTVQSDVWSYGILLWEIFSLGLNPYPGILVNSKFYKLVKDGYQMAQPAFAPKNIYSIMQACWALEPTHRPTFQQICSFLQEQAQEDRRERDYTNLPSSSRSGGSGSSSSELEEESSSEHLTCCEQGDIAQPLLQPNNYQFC
Chain of PDGFRA kinase (P16234 24-1089): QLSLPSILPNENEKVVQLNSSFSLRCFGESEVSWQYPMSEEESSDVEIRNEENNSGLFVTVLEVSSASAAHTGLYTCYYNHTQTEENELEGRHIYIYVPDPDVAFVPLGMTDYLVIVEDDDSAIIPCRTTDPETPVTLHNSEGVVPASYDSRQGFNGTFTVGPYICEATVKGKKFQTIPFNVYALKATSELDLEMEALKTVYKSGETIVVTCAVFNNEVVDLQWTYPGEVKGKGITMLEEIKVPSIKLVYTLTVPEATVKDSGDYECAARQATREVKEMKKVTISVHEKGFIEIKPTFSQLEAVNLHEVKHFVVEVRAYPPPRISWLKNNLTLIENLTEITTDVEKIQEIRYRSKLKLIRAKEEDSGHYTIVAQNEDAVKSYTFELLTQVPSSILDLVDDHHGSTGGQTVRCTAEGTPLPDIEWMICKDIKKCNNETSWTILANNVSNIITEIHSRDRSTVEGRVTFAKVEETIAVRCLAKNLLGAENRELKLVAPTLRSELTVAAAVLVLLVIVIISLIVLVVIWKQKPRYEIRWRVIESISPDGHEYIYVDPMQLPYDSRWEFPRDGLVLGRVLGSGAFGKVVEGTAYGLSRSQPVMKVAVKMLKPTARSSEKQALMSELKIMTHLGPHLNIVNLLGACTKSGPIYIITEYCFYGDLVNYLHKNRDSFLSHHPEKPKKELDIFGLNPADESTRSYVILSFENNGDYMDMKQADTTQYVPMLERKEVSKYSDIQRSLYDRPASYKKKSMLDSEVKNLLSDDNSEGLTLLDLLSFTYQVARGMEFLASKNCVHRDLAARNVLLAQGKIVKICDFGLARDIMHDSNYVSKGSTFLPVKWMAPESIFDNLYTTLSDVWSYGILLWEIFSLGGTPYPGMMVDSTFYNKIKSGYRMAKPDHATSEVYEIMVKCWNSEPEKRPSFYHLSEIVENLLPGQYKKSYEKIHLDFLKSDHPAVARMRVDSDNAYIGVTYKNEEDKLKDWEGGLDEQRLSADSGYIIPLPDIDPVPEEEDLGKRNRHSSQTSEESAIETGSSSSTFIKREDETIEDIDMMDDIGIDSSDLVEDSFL
Chain of KIT kinase (P10721 26-976): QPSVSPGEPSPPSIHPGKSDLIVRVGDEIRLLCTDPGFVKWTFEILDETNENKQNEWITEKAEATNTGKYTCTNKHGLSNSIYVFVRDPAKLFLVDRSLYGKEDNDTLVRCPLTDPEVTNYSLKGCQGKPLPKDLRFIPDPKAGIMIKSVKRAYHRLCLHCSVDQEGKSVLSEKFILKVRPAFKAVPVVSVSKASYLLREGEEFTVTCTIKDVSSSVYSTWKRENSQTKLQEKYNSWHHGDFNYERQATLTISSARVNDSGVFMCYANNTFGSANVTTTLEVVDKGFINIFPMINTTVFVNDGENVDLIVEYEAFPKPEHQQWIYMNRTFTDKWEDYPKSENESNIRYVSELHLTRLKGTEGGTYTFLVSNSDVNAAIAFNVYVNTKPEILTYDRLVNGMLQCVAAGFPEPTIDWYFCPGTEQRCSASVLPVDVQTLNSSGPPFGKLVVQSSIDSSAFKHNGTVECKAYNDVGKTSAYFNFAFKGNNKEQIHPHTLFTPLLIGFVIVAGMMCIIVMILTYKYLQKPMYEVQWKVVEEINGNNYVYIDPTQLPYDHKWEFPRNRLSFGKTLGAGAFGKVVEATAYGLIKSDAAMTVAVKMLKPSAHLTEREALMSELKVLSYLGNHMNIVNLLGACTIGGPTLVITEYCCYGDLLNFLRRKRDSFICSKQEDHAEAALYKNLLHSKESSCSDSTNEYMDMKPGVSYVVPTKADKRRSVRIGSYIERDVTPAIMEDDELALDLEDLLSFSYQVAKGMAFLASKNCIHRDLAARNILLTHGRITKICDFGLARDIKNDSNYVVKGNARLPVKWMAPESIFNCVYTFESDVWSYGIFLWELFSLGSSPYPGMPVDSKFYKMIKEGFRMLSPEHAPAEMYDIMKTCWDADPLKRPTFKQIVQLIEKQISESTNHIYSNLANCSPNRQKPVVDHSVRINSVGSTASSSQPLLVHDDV

For the compound `Cc1nc(-c2cnc3n(c2=O)CCCN3C(C)C)ccc1Oc1ccnc(-c2cnn(C)c2)c1` [Example 5, 9-isopropyl-3-(6-methyl-5-((2-(1-methyl-1H-pyrazol-4-yl)pyridin-4-yl)oxy)pyridin-2-yl)-6,7,8,9-tetrahydro-4H-pyrimido[1,2-a]pyrimidin-4-one], the IC50 stood at 226 nM on PDGFRA kinase; 95.2 nM on CSF-1R; 22.6 nM at KIT kinase; 127 nM in test [1] (read-out: Cytological experiment CSF1R IC50); 114 nM in test [1] (absolute half maximal inhibition, read-out: Cytological experiment CSF-1R Absolute IC50).

These data come from patent US11130762B2, “Azaaryl derivative, preparation method therefor, and application thereof for use in pharmacy” (Abbisko Therapeutics Co., Ltd., priority 2017, dated 2021).
